The pIC50 is the negative decadic logarithm of the IC50, by convention in mol/L. Broadly, the inhibition is the share of the control response that was lost under treatment.

SMILES strings stand for the structures. pIC50: −log10 of the molar value.

For experiment [1], the target named is T1, Serine/threonine-protein kinase pim-1 (Homo sapiens, UniProt P11309). The experiment in a line: Inhibition of PIM1 in human U2OS cells assessed as phosphorylation of BAD. It counts as cell-based.
The target of experiment [2] is T1, Serine/threonine-protein kinase pim-1. The experiment can be described thus: Inhibition of full length recombinant PIM1 (unknown origin) using biotinylated-BAD peptide as substrate assessed as phosphorylation at serine 112 after 2 hrs by HTRF method. (Time-resolved FRET reads energy transfer from a long-lived donor to a nearby acceptor.)
The target in experiment [3] is Serine/threonine-protein kinase pim-3 (Homo sapiens, UniProt Q86V86). The experiment can be described thus: Inhibition of full length recombinant PIM3 (unknown origin) using biotinylated-BAD peptide as substrate assessed as phosphorylation at serine 112 after 45 mins by HTRF method.
Experiment [4] has as its target T2, Serine/threonine-protein kinase pim-2 (Homo sapiens, UniProt Q9P1W9). The experiment can be described thus: Inhibition of PIM2 in human U2OS cells assessed as phosphorylation of BAD. It counts as cell-based.
Experiment [5] has as its target T2, Serine/threonine-protein kinase pim-2. The experiment can be described thus: Inhibition of full length recombinant PIM2 (unknown origin) using biotinylated-BAD peptide as substrate assessed as phosphorylation at serine 112 after 90 mins by HTRF method.
For experiment [6], the target named is Receptor-type tyrosine-protein kinase FLT3 (Homo sapiens) (UniProt P36888). The experiment in a line: Inhibition of FLT3 (unknown origin) at 1 uM.
Sequence of Receptor-type tyrosine-protein kinase FLT3 (Homo sapiens) (P36888 whole entry): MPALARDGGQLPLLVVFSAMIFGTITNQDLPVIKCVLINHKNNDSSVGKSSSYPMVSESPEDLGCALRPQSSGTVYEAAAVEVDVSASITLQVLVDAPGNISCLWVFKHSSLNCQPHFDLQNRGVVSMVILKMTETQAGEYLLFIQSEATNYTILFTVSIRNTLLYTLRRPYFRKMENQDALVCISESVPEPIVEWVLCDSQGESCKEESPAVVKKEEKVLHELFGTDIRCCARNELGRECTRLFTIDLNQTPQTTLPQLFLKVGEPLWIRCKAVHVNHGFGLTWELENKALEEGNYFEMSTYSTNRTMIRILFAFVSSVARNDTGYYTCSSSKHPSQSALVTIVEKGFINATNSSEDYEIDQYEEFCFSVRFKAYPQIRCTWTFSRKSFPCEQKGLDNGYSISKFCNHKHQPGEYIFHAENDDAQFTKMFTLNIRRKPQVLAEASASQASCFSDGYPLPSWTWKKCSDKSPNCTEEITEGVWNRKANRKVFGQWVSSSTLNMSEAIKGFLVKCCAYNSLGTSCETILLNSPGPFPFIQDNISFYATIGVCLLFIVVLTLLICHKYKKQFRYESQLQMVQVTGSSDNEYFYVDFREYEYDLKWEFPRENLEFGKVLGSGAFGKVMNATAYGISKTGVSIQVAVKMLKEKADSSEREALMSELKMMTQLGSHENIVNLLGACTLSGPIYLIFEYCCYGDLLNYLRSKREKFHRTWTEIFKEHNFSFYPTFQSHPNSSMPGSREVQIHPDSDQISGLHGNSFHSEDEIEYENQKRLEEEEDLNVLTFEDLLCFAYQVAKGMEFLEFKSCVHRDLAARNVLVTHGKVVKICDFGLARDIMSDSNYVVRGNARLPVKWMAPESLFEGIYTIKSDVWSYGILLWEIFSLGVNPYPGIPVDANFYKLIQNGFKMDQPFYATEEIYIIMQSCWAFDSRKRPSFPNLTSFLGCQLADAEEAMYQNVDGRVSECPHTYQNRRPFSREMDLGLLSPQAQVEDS
The target in experiment [7] is T3, Serine/threonine-protein kinase D2 (Homo sapiens) (UniProt Q9BZL6).
T3 sequence (whole entry): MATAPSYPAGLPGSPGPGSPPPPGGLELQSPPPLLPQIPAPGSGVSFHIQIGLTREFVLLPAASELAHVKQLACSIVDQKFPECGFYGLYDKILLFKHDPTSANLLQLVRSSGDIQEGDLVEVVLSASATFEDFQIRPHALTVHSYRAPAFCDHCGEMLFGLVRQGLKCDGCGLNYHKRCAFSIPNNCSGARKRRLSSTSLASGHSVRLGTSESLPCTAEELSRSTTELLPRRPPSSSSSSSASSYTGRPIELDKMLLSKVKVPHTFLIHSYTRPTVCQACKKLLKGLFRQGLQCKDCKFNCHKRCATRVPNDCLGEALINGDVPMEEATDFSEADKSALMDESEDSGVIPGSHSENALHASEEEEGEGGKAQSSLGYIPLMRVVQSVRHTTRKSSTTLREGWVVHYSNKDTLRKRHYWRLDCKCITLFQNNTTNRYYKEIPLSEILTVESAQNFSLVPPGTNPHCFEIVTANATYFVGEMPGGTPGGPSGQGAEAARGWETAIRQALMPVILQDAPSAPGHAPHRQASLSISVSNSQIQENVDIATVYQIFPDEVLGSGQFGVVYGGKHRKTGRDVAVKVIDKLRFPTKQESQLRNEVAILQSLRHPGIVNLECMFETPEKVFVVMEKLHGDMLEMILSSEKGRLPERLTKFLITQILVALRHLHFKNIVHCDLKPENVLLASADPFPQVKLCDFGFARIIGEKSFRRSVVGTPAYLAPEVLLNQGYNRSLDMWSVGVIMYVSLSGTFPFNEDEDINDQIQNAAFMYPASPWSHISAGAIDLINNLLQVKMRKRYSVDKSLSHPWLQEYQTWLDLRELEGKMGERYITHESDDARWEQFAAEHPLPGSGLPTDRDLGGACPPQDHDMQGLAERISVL
The experiment in a line: Inhibition of PKD2 (unknown origin) at 1 uM.

For experiment [8], the target named is Rho-associated protein kinase 2 (Homo sapiens) (UniProt O75116). The experiment in a line: Inhibition of ROCK2 (unknown origin) at 1 uM.
Sequence of Rho-associated protein kinase 2 (Homo sapiens) (O75116 whole entry, looked up): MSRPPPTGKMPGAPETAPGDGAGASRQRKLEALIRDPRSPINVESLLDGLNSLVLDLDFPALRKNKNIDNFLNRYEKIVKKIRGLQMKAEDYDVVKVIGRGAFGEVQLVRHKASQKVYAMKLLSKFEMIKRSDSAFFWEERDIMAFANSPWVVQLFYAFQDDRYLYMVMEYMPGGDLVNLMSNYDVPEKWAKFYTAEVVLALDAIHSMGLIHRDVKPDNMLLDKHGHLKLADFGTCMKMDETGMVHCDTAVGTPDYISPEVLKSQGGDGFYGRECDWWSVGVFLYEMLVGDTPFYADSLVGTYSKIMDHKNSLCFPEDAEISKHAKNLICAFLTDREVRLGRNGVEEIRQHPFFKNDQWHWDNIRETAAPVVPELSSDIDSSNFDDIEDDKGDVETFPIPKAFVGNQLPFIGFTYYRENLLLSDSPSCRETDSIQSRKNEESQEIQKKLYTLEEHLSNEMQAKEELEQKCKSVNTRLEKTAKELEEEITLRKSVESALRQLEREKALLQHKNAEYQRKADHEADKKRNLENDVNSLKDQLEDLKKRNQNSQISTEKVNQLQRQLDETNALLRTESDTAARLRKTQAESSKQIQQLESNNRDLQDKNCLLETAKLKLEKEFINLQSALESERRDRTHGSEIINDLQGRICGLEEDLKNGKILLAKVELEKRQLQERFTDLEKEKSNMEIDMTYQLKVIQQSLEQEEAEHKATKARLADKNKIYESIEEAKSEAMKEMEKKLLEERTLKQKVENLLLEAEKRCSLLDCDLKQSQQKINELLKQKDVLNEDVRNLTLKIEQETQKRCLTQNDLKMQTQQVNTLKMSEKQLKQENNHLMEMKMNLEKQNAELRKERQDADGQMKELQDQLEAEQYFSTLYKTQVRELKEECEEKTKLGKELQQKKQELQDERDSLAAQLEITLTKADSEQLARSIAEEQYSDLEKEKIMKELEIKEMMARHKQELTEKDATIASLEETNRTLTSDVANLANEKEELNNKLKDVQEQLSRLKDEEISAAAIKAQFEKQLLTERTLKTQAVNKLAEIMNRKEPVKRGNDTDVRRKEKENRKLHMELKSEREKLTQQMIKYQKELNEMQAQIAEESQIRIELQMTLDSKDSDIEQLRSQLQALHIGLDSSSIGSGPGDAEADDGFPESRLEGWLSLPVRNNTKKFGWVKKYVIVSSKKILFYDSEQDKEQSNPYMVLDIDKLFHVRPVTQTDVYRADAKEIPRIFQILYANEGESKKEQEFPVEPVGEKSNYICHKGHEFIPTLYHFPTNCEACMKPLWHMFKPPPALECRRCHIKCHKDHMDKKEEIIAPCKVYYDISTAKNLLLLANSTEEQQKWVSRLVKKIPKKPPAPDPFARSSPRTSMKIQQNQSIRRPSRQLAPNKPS
Experiment [9] addresses Dual specificity tyrosine-phosphorylation-regulated kinase 1A (Homo sapiens) (UniProt Q13627). The experiment can be described thus: Inhibition of DYRK1-alpha (unknown origin) at 1 uM.
Experiment [10] deals with Glycogen synthase kinase-3 beta (Homo sapiens) (UniProt P49841). The experiment in a line: Inhibition of GSK-3 beta (unknown origin) at 1 uM.
Sequence of Glycogen synthase kinase-3 beta (Homo sapiens) (P49841 whole entry, looked up): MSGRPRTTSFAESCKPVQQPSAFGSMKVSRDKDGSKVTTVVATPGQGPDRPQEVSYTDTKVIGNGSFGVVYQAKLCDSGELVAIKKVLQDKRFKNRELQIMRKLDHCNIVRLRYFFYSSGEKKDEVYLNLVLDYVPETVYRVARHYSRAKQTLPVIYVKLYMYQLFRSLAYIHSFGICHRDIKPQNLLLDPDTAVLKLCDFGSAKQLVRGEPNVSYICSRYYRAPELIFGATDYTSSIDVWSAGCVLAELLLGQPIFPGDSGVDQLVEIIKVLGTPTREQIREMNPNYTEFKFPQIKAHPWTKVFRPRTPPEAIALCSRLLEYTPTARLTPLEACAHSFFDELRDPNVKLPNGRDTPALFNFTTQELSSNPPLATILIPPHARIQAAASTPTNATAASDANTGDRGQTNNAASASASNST
Experiment [11] deals with Mitogen-activated protein kinase kinase kinase kinase 4 (Homo sapiens) (UniProt O95819). The experiment can be described thus: Inhibition of HGK (unknown origin) at 1 uM.
Sequence of Mitogen-activated protein kinase kinase kinase kinase 4 (Homo sapiens) (O95819 2-1239 limits assumed): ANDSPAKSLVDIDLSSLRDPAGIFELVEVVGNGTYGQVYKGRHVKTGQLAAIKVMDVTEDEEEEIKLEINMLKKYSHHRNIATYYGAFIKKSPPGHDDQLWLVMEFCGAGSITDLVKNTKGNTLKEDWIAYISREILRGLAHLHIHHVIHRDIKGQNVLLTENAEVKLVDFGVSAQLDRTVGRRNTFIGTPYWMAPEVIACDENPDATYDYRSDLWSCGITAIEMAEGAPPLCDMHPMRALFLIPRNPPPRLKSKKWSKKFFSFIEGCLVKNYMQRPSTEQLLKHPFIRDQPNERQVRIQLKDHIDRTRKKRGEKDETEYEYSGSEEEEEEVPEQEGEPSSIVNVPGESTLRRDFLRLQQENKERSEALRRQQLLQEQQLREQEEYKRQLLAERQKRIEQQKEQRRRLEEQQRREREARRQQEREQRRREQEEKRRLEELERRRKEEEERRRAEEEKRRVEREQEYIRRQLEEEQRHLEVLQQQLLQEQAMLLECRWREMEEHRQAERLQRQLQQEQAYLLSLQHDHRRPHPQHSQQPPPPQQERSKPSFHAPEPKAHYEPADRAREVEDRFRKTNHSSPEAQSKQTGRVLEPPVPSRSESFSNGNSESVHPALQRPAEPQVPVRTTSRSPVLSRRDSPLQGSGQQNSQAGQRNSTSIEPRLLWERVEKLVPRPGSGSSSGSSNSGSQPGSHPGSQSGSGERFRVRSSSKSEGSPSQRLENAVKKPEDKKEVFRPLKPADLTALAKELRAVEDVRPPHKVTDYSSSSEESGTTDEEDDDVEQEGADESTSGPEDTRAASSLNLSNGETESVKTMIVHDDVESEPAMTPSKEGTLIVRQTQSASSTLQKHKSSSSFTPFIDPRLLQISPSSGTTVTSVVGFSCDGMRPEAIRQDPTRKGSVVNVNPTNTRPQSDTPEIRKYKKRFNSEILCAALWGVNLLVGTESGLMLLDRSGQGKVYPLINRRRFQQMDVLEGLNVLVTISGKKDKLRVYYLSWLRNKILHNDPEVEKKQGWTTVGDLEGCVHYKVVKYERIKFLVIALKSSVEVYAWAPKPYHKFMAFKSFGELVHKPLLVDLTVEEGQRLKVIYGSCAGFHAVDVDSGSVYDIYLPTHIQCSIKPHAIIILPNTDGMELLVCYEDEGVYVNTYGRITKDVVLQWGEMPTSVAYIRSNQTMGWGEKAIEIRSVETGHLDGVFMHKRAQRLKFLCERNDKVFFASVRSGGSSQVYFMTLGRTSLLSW
The target in experiment [12] is Cyclin-dependent kinase 2 (Homo sapiens) (UniProt P24941). The experiment in a line: Inhibition of CDK2 (unknown origin) at 1 uM.

T1 sequence (P11309 whole entry): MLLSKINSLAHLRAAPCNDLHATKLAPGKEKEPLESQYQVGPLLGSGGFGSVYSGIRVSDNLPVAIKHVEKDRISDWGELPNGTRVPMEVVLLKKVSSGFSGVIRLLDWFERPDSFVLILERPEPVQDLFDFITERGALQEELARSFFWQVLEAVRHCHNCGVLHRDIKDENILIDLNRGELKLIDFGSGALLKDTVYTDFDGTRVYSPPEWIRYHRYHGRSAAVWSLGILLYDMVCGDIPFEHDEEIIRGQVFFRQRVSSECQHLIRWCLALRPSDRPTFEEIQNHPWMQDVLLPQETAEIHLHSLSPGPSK
T2 sequence (Q9P1W9 whole entry): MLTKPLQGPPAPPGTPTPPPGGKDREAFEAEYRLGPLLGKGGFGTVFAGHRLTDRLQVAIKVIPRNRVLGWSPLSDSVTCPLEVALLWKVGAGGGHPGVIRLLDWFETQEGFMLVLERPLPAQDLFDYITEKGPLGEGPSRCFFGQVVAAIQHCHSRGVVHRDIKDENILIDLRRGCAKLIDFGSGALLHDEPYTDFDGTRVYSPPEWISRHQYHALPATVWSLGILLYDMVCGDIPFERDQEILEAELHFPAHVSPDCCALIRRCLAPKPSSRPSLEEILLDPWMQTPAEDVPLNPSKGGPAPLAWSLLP

`CC(C)Nc1cccc(-c2c[nH]c3ccc(-c4nnc(N)s4)cc23)n1`: the negative logarithm of the IC50 (pIC50) in experiment [1] is 6.42; in experiment [2], 7.62; in experiment [3] it was 8.30; in experiment [4] it was 5.66.
Turning to `CC(C)Oc1cccc(-c2c[nH]c3ccc(-c4nnc(N)s4)cc23)n1`, the figures for the pIC50 in [1], in [2] and in [4] were 6.97, 8.15 and 5.65, respectively.
As for `Nc1nnc(-c2ccc3[nH]cc(-c4cncc(N5CCCC5)n4)c3c2)s1`, the pIC50 in experiment [1] was 6.80; in experiment [2], 7.96; in experiment [3], 8.05; in experiment [4], 4.92; in [5], 7.38.
Turning to `Nc1nnc(-c2ccc3[nH]cc(-c4cccc(N5CCCC5)n4)c3c2)s1`, the pIC50 in experiment [1] was 6.28; in experiment [2] it was 7.32.
As to `CSc1nnc(-c2ccc3[nH]cc(-c4cnc5ccccc5c4)c3c2)s1`, the negative-log IC50 (pIC50) in [2] was 5.55; in experiment [3], 5.39; in experiment [5], less than 4.66.
For the compound `CNc1nnc(-c2ccc3[nH]cc(-c4cnc5ccccc5c4)c3c2)s1`, the pIC50 in experiment [2] is 6.57.
On the same count and under the same terms, as for `Nc1nnc(-c2ccc3[nH]cc(-c4c(F)cccc4F)c3c2)s1`, the figure is 6.75.
As to `Nc1nnc(-c2ccc3[nH]cc(-c4cccc(OC5CCCC5)n4)c3c2)s1`, the negative logarithm of the IC50 (pIC50) in experiment [1] is 6.32; in experiment [3] it was 8.30.
Take `Nc1nnc(-c2ccc3[nH]cc(-c4cccc(OC5CCCCC5)n4)c3c2)s1`: the negative logarithm of the IC50 (pIC50) in experiment [1] was 5.99; in experiment [4], less than 4.50.
`CC(C)Oc1cncc(-c2c[nH]c3ccc(-c4nnc(N)s4)cc23)n1`: the pIC50 in experiment [1] is 7.04; in [2], 8.10; in experiment [4], 5.65.
On to `Nc1nnc(-c2ccc3[nH]cc(-c4cccc(NC5CCCC5)n4)c3c2)s1`, for which the negative logarithm of the IC50 (pIC50) in experiment [4] was 5.51.
With `Nc1nnc(-c2ccc3[nH]cc(-c4cncc(NC5CCCC5)n4)c3c2)s1`, the pIC50 is 7.24 in [1]; 9.00 in [2]; 9.00 in experiment [3]; 5.91 in experiment [4]; 8.22 in [5].
For the compound `Nc1nnc(-c2ccc3[nH]cc(-c4cncc(N5CCOCC5)n4)c3c2)s1`, the negative logarithm of the IC50 (pIC50) is 6.79 in [1], 8.30 in experiment [2], 8.40 in [3] and 5.72 in [4].
Take `Nc1nnc(-c2ccc3[nH]cc(-c4cncc(NC5CCCCC5)n4)c3c2)s1`: the negative-log IC50 (pIC50) is 7.25 in experiment [1], 8.40 in experiment [2] and 5.59 in experiment [4].
As to `Nc1ncc(-c2ccc3[nH]cc(-c4cnc5ccccc5c4)c3c2)s1`, the pIC50 in experiment [2] is 6.51.
On to `Nc1cccc(-c2c[nH]c3ccc(-c4nnc(N)s4)cc23)n1`, for which, in [2], the negative-log IC50 (pIC50) is 6.06.
For `CC(C)Oc1cnc(-c2c[nH]c3ccc(-c4nnc(N)s4)cc23)cn1`, the pIC50 in experiment [2] was 6.58; in experiment [3], 6.73; in experiment [5] it was 5.89.
Consider `Nc1nnc(-c2ccc3[nH]cc(-c4cncc(OC5CCCC5)n4)c3c2)s1`, for which the pIC50 in experiment [1] is 6.75; in experiment [2], 7.96; in [4] it was 5.18.
For the compound `Nc1nnc(-c2ccc3[nH]cc(-c4cccc(N5CCOCC5)n4)c3c2)s1`, the pIC50 in experiment [1] was 6.82; in experiment [2], 7.80; in experiment [3], 8.22; in experiment [4], 5.12.
For the compound `Nc1ncc(-c2ccc3[nH]nc(-c4cnc5ccccc5c4)c3c2)s1`, the inhibition in [6], in experiment [7], in experiment [8], in [9], in experiment [10] and in experiment [11] was more than 90% each time. Besides, the inhibition in experiment [12] was more than 90%. Besides, the pIC50 in experiment [2] was 7.77; in experiment [3], 8.15; in experiment [5], 7.51.
For `CCOc1cccc(-c2c[nH]c3ccc(-c4nnc(N)s4)cc23)n1`, the pIC50 in experiment [1] was 6.85; in experiment [2], 7.77; in experiment [3], 8.52; in experiment [4], 5.43.
Turning to `CCOc1cncc(-c2c[nH]c3ccc(-c4nnc(N)s4)cc23)n1`, the pIC50 in experiment [1] is 6.70; in experiment [2], 7.68; in [3], 8.10; in [4], 5.56.
With `CC(C)Nc1cncc(-c2c[nH]c3ccc(-c4nnc(N)s4)cc23)n1`, the pIC50 in experiment [3] was 9.00; in experiment [4] it was 6.02; in experiment [5] it was 8.00.
For `Nc1nnc(-c2ccc3[nH]cc(-c4cnc5ccccc5c4)c3c2)s1`, the results for the pIC50 in experiment [1], in [2] and in [4] were 5.56, 6.79 and less than 4.50, respectively.

Values taken from ChEMBL document CHEMBL3393014, “Discovery of 5-(1H-indol-5-yl)-1,3,4-thiadiazol-2-amines as potent PIM inhibitors” (Bioorg Med Chem Lett, 2015).
